Laboratory results published in patent publication US8796219B2, “Target-activated cell/tissue-penetrating peptide for delivery of impermeable compounds and use thereof” (Nano Intelligent Biomedical Engineering Corporation Co. Ltd, priority 2009, dated 2014).
Where no end group is shown, it is not given here.

How the values were obtained:
[1] = test system: normal cell line (ATCC); experiment: Cell-penetrating ability in normal cell line (FACS and confocal laser scanning microscopy of FITC fluorescence); assay type: cell-based; settings: FITC label
Procedure: (§1) In order to examine the cell-penetrating ability of the target-activated cell/tissue-penetrating peptide prepared in Example 1, the C-terminal region of the prepared peptide was labeled with the fluorescence marker FITC, and the fluorescence-labeled peptide was inoculated into each of a normal cell line (ATCC) and a tumor cell line (CT-26, KCLB (Korea cell line bank) 80009).
(§2) 1 hour after the inoculation, the fluorescence intensities of the cell lines were measured using FACS, and the results of the measurement are shown in FIG. 2. […] In FIG. 2, “(a)” indicates the fluorescence intensity of the normal cell line, and “(b)” indicates the fluorescence intensity of the tumor cell line.
(§3) Also, whether the peptide penetrated into the cells was observed by a confocal laser scanning microscope. […] In FIG. 3, “(a)” indicates the cell penetration of the peptide in the tumor cell line group, and “(b)” indicates the cell penetration of the peptide in the normal cell line group.
(§4) The target-activated cell/tissue-penetrating peptide-anticancer protein conjugate prepared in Example 2 above was inoculated into each of a normal cell line (ATCC) and a tumor cell line (CT-26, KCLB (Korea cell line bank) 80009). 1 hour after the inoculation, the penetration of the peptide-gelonin conjugate into the cells was observed by a confocal laser scanning microscope (FIG. 4).

[2] = test system: tumor cell line (CT-26); experiment: Cell-penetrating ability in tumor cell line (FACS and confocal laser scanning microscopy of FITC fluorescence); assay type: cell-based, mouse
Procedure: as §1, §2, §3, §4

Row | Substance | fluorescence intensity of the normal cells (FACS) [1] | fluorescence intensity of the tumor cells (FACS) ([2]; CT-26, 1 hour after inoculation, FITC label) | penetration into the cells observed by confocal laser scanning microscope, tumor cell line ([2]; CT-26, FITC label, nuclei stained with Hoechst 33342) | penetration into the cells observed by confocal laser scanning microscope, normal cell line ([1]; nuclei stained with Hoechst 33342)
1 | NH2-EEEEEEEPLGLAG-VSRRRRRRGGRRRR-C-COONH2 (H-EEEEEEEPLGLAGVSRRRRRRGGRRRRC-NH2) [masking domain (EEEEEEE), MMP-cleavable spacer (PLGLAG) and LMWP as protein transduction domain] | the same as that before application of the penetrating peptide | – | – | –
2 | fluorescence-labeled peptide: peptide of Example 1 with the C-terminal region labeled with the fluorescence marker FITC (H-EEEEEEEPLGLAGVSRRRRRRGGRRRRC; also: FITC label on C-terminal region) | – | increase | observed | not observed
